Entries after “also recorded” stand apart in the source; their conditions may differ.
Experiments:
IL-6 = assay: Serum cytokine induction after NC-CpG or free CpG inoculation (ELISA); format: in vivo; settings: s.c.; 100 μg NC-CpG (containing 5% CpG-1826) or 5 μg free CpG-1826; pooled sera, 3/group; FIG. 4
Protocol: (§1) TNF-α and IL-6 were induced in sera of NC-CpG- and free CpG-inoculated animals. Animal groups were inoculated (s.c.) either with 100 μg of NC-CpG (containing 5% CpG-1826) or with 5 μg of free CpG-1826. At different time-points post inoculation serum was collected from the animals (3/group) by terminal bleed, pooled and assayed for cytokine presence in ELISA (BD).

TNF-α = assay: as above; format: in vivo; settings: s.c.; 100 μg NC-CpG (containing 5% CpG-1826) or 5 μg free CpG-1826; pooled sera, 3/group; FIG. 4
Protocol: as §1

Substance: 5′-TCCATGACGTTCCTGACGTT-3′ [free CpG]
- induction of IL-6 in serum (IL-6): induced; also recorded: substantially higher induction
- induction of TNF-α in serum (TNF-α): induced; also recorded: substantially higher induction

From patent publication US20150374815A1, “METHODS AND COMPOSITIONS FOR TREATMENT WITH SYNTHETIC NANOCARRIERS AND IMMUNE CHECKPOINT INHIBITORS” (Selecta Biosciences, Inc., priority 2014, published 2015)
